Experimental data as given in US7960561B2, “2-(phenylamino) benzimidazole derivatives and their use as modulators of small-conductance calcium-activated potassium channels” (Neurosearch A/S, priority 2005, dated 2011).
Structures can show the parent of a compound that is named as a salt.

melting point [°C] | SMILES
179 to 180 | CC(C)c1ccc(Nc2nc3ccccc3[nH]2)cc1 [Example 25, N-(Benzoimidazol-2-yl)-4-isopropylaniline]
246 to 248 | Cc1cc(Nc2nc3ccccc3[nH]2)ccc1F (as salt: hydrochloride) [Example 12, N-(Benzimidazol-2-yl)-4-fluoro-3-methylaniline]
252 to 257 | Clc1cccc(Nc2nc3ccccc3[nH]2)c1 (as salt: hydrochloride) [Example 5, N-(Benzimidazol-2-yl)-3-chloroaniline]
306 to 307 | Fc1ccc(Nc2nc3ccccc3[nH]2)cc1Cl (as salt: hydrochloride) [Example 14, N-(Benzimidazol-2-yl)-3-chloro-4-fluoroaniline]
255 to 257 | Fc1ccc(Nc2nc3ccccc3[nH]2)cc1C(F)(F)F (as salt: hydrochloride) [Example 11, N-(Benzimidazol-2-yl)-4-fluoro-3-(trifluoromethyl)aniline]
245 to 246 | FC(F)(F)c1cc(Nc2nc3ccccc3[nH]2)cc(C(F)(F)F)c1 (as salt: hydrochloride) [Example 13, N-(Benzimidazol-2-yl)-3,5-bis(trifluoromethyl)aniline]
182 to 183 | Fc1ccc(Nc2nc3ccccc3[nH]2)c(F)c1F [Example 21, N-(Benzimidazol-2-yl)-2,3,4-trifluoroaniline]
> 270 | Clc1ccc(Nc2nc3ccccc3[nH]2)cc1Cl (as salt: hydrochloride) [Example 3, N-(Benzimidazol-2-yl)-3,4-dichloroaniline]
283 to 284 | Fc1ccc(Nc2nc3ccccc3[nH]2)cc1F (as salt: hydrochloride) [Example 8, N-(Benzimidazol-2-yl)-3,4-difluoroaniline]
> 265 | Cc1ccc(Nc2nc3ccccc3[nH]2)cc1C(F)(F)F (as salt: hydrochloride) [Example 17, N-(Benzimidazol-2-yl)-4-methyl-3-(trifluoromethyl)aniline]
263 to 265 | Fc1cc(Nc2nc3ccccc3[nH]2)cc(C(F)(F)F)c1 (as salt: hydrochloride) [Example 18, N-(Benzimidazol-2-yl)-3-fluoro-5-(trifluoromethyl)aniline]
238 to 240 | Clc1ccc(Nc2nc3ccccc3[nH]2)cc1 (as salt: hydrochloride) [Example 1, N-(Benzimidazol-2-yl)-4-chloroaniline]
199 to 200 | FC(F)(F)c1ccc(Nc2nc3ccccc3[nH]2)cc1 [Example 4, N-(Benzimidazol-2-yl)-4-(trifluoromethyl)aniline]
160 to 162 | FC(F)(F)c1cccc(Nc2nc3ccccc3[nH]2)c1 [Example 10, N-(Benzimidazol-2-yl)-3-(trifluoromethyl)aniline]
> 275 | CN(c1ccc(Cl)c(Cl)c1)c1nc2ccccc2[nH]1 (as salt: hydrochloride) [Example 22, N-(Benzoimidazol-2-yl)-N-methyl-3,4-dichloroaniline]
272 to 274 | N#Cc1cccc(Nc2nc3ccccc3[nH]2)c1 [Example 23, N-(Benzoimidazol-2-yl)-3-cyanoaniline]
204 to 206 | Cc1c(Nc2nc3ccccc3[nH]2)cccc1C(F)(F)F [Example 19, N-(Benzimidazol-2-yl)-2-methyl-3-(trifluoromethyl)aniline]
292 to 293 | Fc1cc(F)cc(Nc2nc3ccccc3[nH]2)c1 (as salt: hydrochloride) [Example 9, N-(Benzimidazol-2-yl)-3,5-difluoroaniline]
250 to 251 | FC(F)(F)Oc1ccc(Nc2nc3ccccc3[nH]2)cc1 (as salt: hydrochloride) [Example 6, N-(Benzimidazol-2-yl)-4-(trifluoromethoxy)aniline]
152 to 154 | c1ccc(-c2ccccc2Nc2nc3ccccc3[nH]2)cc1 [Example 28, N-(Benzoimidazol-2-yl)-2-phenylaniline]
317 to 318 | Clc1cc(Cl)cc(Nc2nc3ccccc3[nH]2)c1 (as salt: hydrochloride) [Example 15, N-(Benzimidazol-2-yl)-3,5-dichloroaniline]
255 to 260 | FC(F)(F)c1cc(Nc2nc3ccccc3[nH]2)ccc1Cl (as salt: hydrochloride) [Example 2, N-(Benzimidazol-2-yl)-4-chloro-3-(trifluoromethyl)aniline]
91 to 92 | Fc1c(Nc2nc3ccccc3[nH]2)cccc1C(F)(F)F [Example 20, N-(Benzimidazol-2-yl)-2-fluoro-3-(trifluoromethyl)aniline]
215 to 216 | Fc1ccc(Nc2nc3ccccc3[nH]2)cc1 (as salt: hydrochloride) [Example 7, N-(Benzimidazol-2-yl)-4-fluoroaniline]
262 to 264 | FC(F)(F)c1cc(Nc2nc3ccccc3[nH]2)ccc1Br (as salt: hydrochloride) [Example 16, N-(Benzimidazol-2-yl)-4-bromo-3-(trifluoromethyl)aniline]
212 to 213 | COc1cc(Nc2nc3ccccc3[nH]2)cc(C(F)(F)F)c1 (as salt: hydrochloride) [Example 24, N-(Benzoimidazol-2-yl)-3-methoxy-5-(trifluoromethyl)aniline]
